Data as given in patent publication US7238469B2, “Carbon monoxide improves outcomes in tissue and organ transplants and suppresses apoptosis” (priority 2001, dated 2007).

What was measured:
[1] = test system: murine islets of Langerhans; assay: DNA fragmentation analysis (FACScan) of murine islets stimulated with TNF-α and cycloheximide; format: cell-based, C57BL/6 mice; conditions: isolated murine islets; TNF-α plus cycloheximide; CO 1% for 24 hours; analysed after 48 hours
Procedure: βTC3 cultures were incubated with recombinant TNF-α (500 or 1000 U/ml) (R&D Systems) for 24 hours and islet cultures were stimulated with TNF-É (5000 U/ml) (R&D Systems) and cyclohexamide (CHX) (50 μg/ml) for 48 hours. βTC3 or islets were harvested, dispersed, fixed in 70% ethanol, and suspended in DNA staining buffer (PBS, pH 7.4, containing 0.1% Triton X-100, 0.1 mM EDTA, 50 μg/ml propidium iodide, […] Rnase A). DNA content was analyzed on a FACScan™ analyzer equipped with Cell QuestO Software (Becton Dickinson, Palo Alto, Calif.). Cells with a normal DNA content (2N) were scored as viable, whereas cells with a hypoploid DNA content (<2N, termed A^0) were scored as apoptotic. To exclude debris and apoptotic cell-free fragments, all events with an FL-2 area profile below that of chicken erythrocyte nuclei were excluded from analysis.
(§1) Cells and islets were exposed to 1% carbon monoxide in compressed air balanced with 5% CO2, as described elsewhere (see, e.g., Otterbein et al., Nature Med. 6:422–428, 2000). Islets were incubated in RPMI medium pre-saturated with carbon monoxide (4° C. overnight, 1% CO, 5% CO2) for two hours at 37° C. while treatment with 1% CO, 5% CO2 was continued.
Whether exogenous carbon monoxide protects murine islet cells from apoptosis was also investigated (FIG. 3). […] After 48 hours cells were analyzed on a FACScan™ for DNA fragmentation. […]

p38 MAPK = molecular target: T1, p38 MAPK (Bos taurus, UniProt A6QLR9); format: cell-based, bovine; conditions: BAECs; CO 10,000 ppm
T1 construct: endogenous in cells; host or cells: bovine aortic endothelial cells (BAEC)
T1 sequence (A6QLR9 1-360): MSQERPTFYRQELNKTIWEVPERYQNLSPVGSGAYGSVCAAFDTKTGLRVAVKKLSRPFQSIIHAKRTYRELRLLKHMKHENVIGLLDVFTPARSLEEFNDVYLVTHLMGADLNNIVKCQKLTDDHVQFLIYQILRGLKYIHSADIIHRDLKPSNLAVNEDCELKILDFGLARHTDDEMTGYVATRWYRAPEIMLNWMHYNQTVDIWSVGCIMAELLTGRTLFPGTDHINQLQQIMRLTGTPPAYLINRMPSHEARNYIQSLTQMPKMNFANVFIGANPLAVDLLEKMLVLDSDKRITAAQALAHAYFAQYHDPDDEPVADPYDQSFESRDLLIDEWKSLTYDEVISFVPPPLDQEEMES

[2] = test system: islets transplanted under the kidney capsule of diabetic syngeneic recipients; assay: Syngeneic marginal mass islet transplantation, time to normoglycemia; format: in vivo, C57BL/6 mice; conditions: 250 islets pre-incubated two hours in medium pre-saturated with 1% CO
Procedure: as §1
Male C57BL/6 were purchased from Charles River Laboratories (Wilmington, Mass.) and housed in accordance with guidelines from the NIH. The experiments were approved by the Institutional Animal Care and Use Committee (IACUC). Recipient mice (8 weeks old) were rendered diabetic by a single intraperitoneal injection (220 mg/kg) of StreptozotocinO (Sigma) dissolved in citrate buffer. Mice received transplants if 2 consecutive non-fasting blood glucose levels of greater than 350 mg/dl were obtained from a whole blood sample.
250 islets 150–250 îm in diameter were hand-picked using a dissecting microscope. Islets were transplanted under the kidney capsule as described previously (Kaufman et al., J. Exp. Med. 172:291–302, 1990). […]
Whether carbon monoxide pre-incubation of islet grafts prior to transplantation results in better functional performance in vivo was investigated (FIGS. 6A–B). […] After transplantation, blood glucose levels were determined on a daily basis. […]

Compound: [C-]#[O+] [CO, carbon monoxide]
- apoptotic cells (DNA fragmentation analysis) [1]: 11.7%
- p38 MAPK activation (p38 MAPK): activated p38 MAPK even in the absence of TNF-α
- time needed to reach normoglycemia (median) [2]: 7 days
